Test system: KB
Assay: Cytotoxicity against human KB cells
Type: functional, cell-based

C#CCCC[C@@H]1NC(=O)[C@H](C(C)C)NC(=O)[C@@H](Cc2ccccc2)N(C)C(=O)[C@@H](C(C)C)N(C)C(=O)[C@H](C(C)C)NC(=O)[C@H](C(C)C)N(C)C(=O)[C@H](C)OC(=O)[C@H]1C [ULONGAPEPTIN]
IC50: 630 nM

— ChEMBL document CHEMBL1159389, “Ulongapeptin, a cytotoxic cyclic depsipeptide from a Palauan marine cyanobacterium Lyngbya sp” (J Nat Prod, 2003)
